Test results: BigSolDB 2.1

Oc1cc(Cl)ccc1Oc1ccc(Cl)cc1Cl
solubility (mole fraction)
Conditions	in chloroform	in ethanol	in isopropyl myristate	in n-heptane	in n-octanol
293.15 K	0.33	0.332	0.0422	0.0156	0.0089
298.15 K	0.412	0.449	0.0475	0.0286	0.025
303.15 K	0.501	0.57	0.0527	0.0421	0.0785
308.15 K	0.561	0.654	0.0563	0.0605	0.157
313.15 K	0.633	0.751	0.0594	0.0806	0.285
